Structures can show the parent of a compound that is named as a salt.
Key:
Type in all cases: physicochemical
[1] = Solubility in 62.5% (v/v) aqueous organic solvents, quantification in HPLC; settings: 20° C., 30 minutes, monohydrochloride trihydrate
Description: The solubility of (+)-(1R,5S,6S)-6-[(R)-1-hydroxyethyl]-1-methyl-2-[(2S,4S)-2-[(3R)-pyrrolidine-3-yl-(R)-hydroxymethyl]pyrrolidine-4-yl]thio-1-carbapen-2-em-3-carboxylic acid monohydrochloride monohydrate and trihydrate in various aqueous organic solvents at a concentration of 62.5% (v/v) in water at 20° C. was determined by HPLC in the following manner.

[2] = Effect of degasification of the air in a vial and/or replacement by nitrogen (storage of powdery charged preparations); settings: 25 mg/vial, storage at 40° C. for 1 month
Description: As the monohydrate crystals, the powdery charged preparation of the novel carbapenem hydrochloride crystals (25 mg/vial) obtained in the method in Example 2-3 (replacement by nitrogen), the powdery charged preparation (25 mg/vial) subjected to replacement by oxygen in place of replacement by nitrogen in Example 2-3, and the powdery charged preparation (25 mg/vial) not subjected to replacement in Example 2-2 were stored at 60° C. for 5 days (N=3) and then measured for their color difference (ΔE), water content, powdery x-ray diffraction pattern, content of residual carbapenem and HPLC impurities. As the trihydrate crystals, the powdery charged preparation of the novel carbapenem hydrochloride crystals (25 mg/vial) obtained by the method (replacement by nitrogen) in Example 1-9 and the powdery charged preparation (25 mg/vial) not subjected to replacement in Example 1-8 were stored at 40° C. for 1 month and then measured for their color difference (ΔE), water content and content of residual carbapenem. The color difference was evaluated by a color difference meter (ZE-200, Nippondenso Co., Ltd.); the water content by a Karl-Fisher moisture meter (CA-05, Mitsubishi Kagaku Kogyo); the powdery X-ray diffraction under the method and conditions in Example 1-1 or 2-1; and the content of residual carbapenem and HPLC impurities by high performance liquid chromatography (Shimadzu Corporation). The color difference (ΔE) is a parameter indicative of a change in the color of the outward appearance of crystals, and its higher value indicates a greater coloration change than at an initial stage (just after production).

[3] = Storage of crystals in bottles without caps at various relative humidity, with or without oxygen absorbent; settings: 25° C., 2 weeks; for water content (hygroscopicity): listed as trihydrate crystals, monohydrochloride trihydrate
Description: The novel carbapenem hydrochloride crystals were weighed in 25 mL wide-mouthed glass bottles (30 mg/bottle), and in the bottles without caps, the monohydrate was stored for 1 week at 40° C. at a relative humidity of 0%, 19.2%, 53% and 75%, and the trihydrate was stored for 2 weeks at 25° C. at a relative humidity of 11%, 33%, 51%, 75% and 93%. Then, the crystals were measured for their color difference (ΔE), water content, powdery X-ray diffraction pattern, and content of residual carbapenem. The monohydrate was also examined in the presence or absence of an oxygen absorbent (trade name: Ageless, produced by Mitsubishi Gas Chemical Co., Ltd.) during storage at each relative humidity. The oxygen absorbent makes oxygen-free conditions under which the preparation is placed.

[4] = Color difference after degasification of vial at various pressures and replacement by nitrogen; settings: 80° C./1 week, n = 6
Description: As the monohydrate, the powdery charged preparations for injection of the novel carbapenem crystals (25 mg/vial) obtained by degasification of the air in the vial at 100, 10, 1, 0.1 and 0.01 hPa (hectopascal) respectively and subsequent replacement by nitrogen according to the method in Example 2-3 (replacement by nitrogen) were stored at 60° C. for 1 or 4 weeks (N=6) and then measured for their color difference (ΔE). The oxygen concentrations in the preparations in vials degasified at 100, 10, 1, 0.1, 0.01 hPa (hectopascal) were measured by an oxygen analyzer (RO-101, Iizima Kogyo). As the trihydrate, the powdery charged preparations of the novel carbapenem hydrochloride crystals (25 mg/vial) obtained in the method in Example 1-9 (replacement by nitrogen) were degasified in the same manner, stored at 80° C. for 1 week (N=6) and then measured for their color difference (ΔE). As the control, the powdery charged preparation of the novel carbapenem hydrochloride crystals (25 mg/vial) subjected to neither degasification nor replacement by nitrogen was used.

[5] = Storage of crystals in bottles without caps at various relative humidity, with or without oxygen absorbent; settings: 25° C., 2 weeks, listed as trihydrate crystals, monohydrochloride trihydrate

For `C[C@@H](O)[C@H]1C(=O)N2C(C(=O)O)=C(S[C@@H]3CN[C@H]([C@H](O)[C@@H]4CCNC4)C3)[C@H](C)[C@H]12` [trihydrate, (+)-(1R,5S,6S)-6-[(R)-1-Hydroxyethyl]-1-methyl-2-[(2S,4S)-2-[(3R)-pyrrolidine-3-yl-(R)-hydroxymethyl]pyrrolidine-4-yl]thio-1-carbapen-2-em-3-carboxylic acid monohydrochloride trihydrate], the solubility ([1]; 62.5% (v/v) 1-acetoxy-2-methyl ethane in water) was 2850 µg/mL, the solubility ([1]; 62.5% (v/v) 1-ethoxy-2-propanol in water) was 3320 µg/mL and the solubility ([1]; 62.5% (v/v) 1-methoxy-2-propanol in water) was 3370 µg/mL. The solubility ([1]; 62.5% (v/v) 2-butoxyethanol in water) was 11850 µg/mL, the solubility ([1]; 62.5% (v/v) 2-ethoxyethanol in water) was 4360 µg/mL and the solubility ([1]; 62.5% (v/v) 2-isopropoxyethanol in water) was 4360 µg/mL. For the same compound, the solubility ([1]; 62.5% (v/v) 2-methoxyethanol in water) was 6390 µg/mL, the solubility ([1]; 62.5% (v/v) 3-methoxy-3-methyl-1-butanol in water) was 4860 µg/mL and the solubility ([1]; 62.5% (v/v) 3-methoxybutanol in water) was 3240 µg/mL. The solubility ([1]; 62.5% (v/v) IPA (isopropyl alcohol) in water) was 4740 µg/mL, the solubility ([1]; 62.5% (v/v) acetonitrile in water) was 12990 µg/mL and the solubility ([1]; 62.5% (v/v) diethylene glycol monoethyl ether in water) was 2680 µg/mL. It also gave a solubility ([1]; 62.5% (v/v) diethylene glycol monomethyl ether in water) of 2410 µg/mL, a solubility ([1]; 62.5% (v/v) dimethyl acetamide in water) of 4530 µg/mL and a solubility ([1]; 62.5% (v/v) dimethyl ether in water) of 1440 µg/mL. For the same compound, the solubility ([1]; 62.5% (v/v) dimethyl formamide in water) was 7310 µg/mL, the solubility ([1]; 62.5% (v/v) dimethyl sulfoxide in water) was 11840 µg/mL and the solubility ([1]; 62.5% (v/v) ethanol in water) was 6320 µg/mL. It also gave a solubility ([1]; 62.5% (v/v) methanol in water) of 14380 µg/mL, a solubility ([1]; 62.5% (v/v) n-propanol in water) of 10460 µg/mL and a solubility ([1]; 62.5% (v/v) t-butanol in water) of 6060 µg/mL. For the same compound, the solubility ([1]; 62.5% (v/v) tetrahydrofuran in water) was 5290 µg/mL, the solubility ([1]; 62.5% (v/v) triethylene glycol monomethyl ether in water) was 2470 µg/mL and the “color difference (ΔE)” value ([2]; control (air)) was 2.78. The “content of residual carbapenem compound” value ([2]; control (air)) was 101.0%, the water content ([2]; control (air)) was 12.0% and the “color difference (ΔE)” value ([2]; gas for replacement nitrogen) was 0.00. The “content of residual carbapenem compound” value ([2]; gas for replacement nitrogen) was 100.2%, the water content ([2]; gas for replacement nitrogen) was 11.3% and the “powdery X-ray diffraction pattern (hygroscopicity)” value (from here on “powdery X-ray diffraction pattern”) ([3]; relative humidity 11%) was “no change”. The “powdery X-ray diffraction pattern” value ([3]; relative humidity 33%) was “no change”, the “water content (hygroscopicity)” value ([3]; relative humidity 33%) was 11.1% and the “powdery X-ray diffraction pattern” value ([3]; relative humidity 51%) was “no change”. For the same compound, the “water content (hygroscopicity)” value ([3]; relative humidity 51%) was 11.1%, the “powdery X-ray diffraction pattern” value ([3]; relative humidity 75%) was “no change” and the “powdery X-ray diffraction pattern” value ([3]; relative humidity 93%) was “no change”. For the same compound, the “color difference (ΔE)” value ([4]; control: neither degasification nor replacement by nitrogen) was 10.06, the “color difference (ΔE)” value ([4]; vial degasified at 1 hPa, replaced by nitrogen) was 3.62 and the “color difference (ΔE)” value ([4]; vial degasified at 10 hPa, replaced by nitrogen) was 3.92. For the same compound, the “color difference (ΔE)” value ([4]; vial degasified at 100 hPa, replaced by nitrogen) was 4.90, the “water content (hygroscopicity)” value ([5]; relative humidity 11%) was 11.0% and the “water content (hygroscopicity)” value ([5]; relative humidity 75%) was 11.1%. The “water content (hygroscopicity)” value ([5]; relative humidity 93%) was 11.4%.

Source: patent US7084268B1, “Carbapenem compound crystals and interjection preparations” (Eisai Co., Ltd., priority 1999, dated 2006)
